Results: article PMC9959048, “Lipidation of Naturally Occurring α-Helical Antimicrobial Peptides as a Promising Strategy for Drug Design” (International Journal of Molecular Sciences, 2023)
Values after ≈ are worked out from the molar mass of the structure shown. Residues, ends and D or L forms follow the SMILES beside them. *: point of attachment. Octanoyl = CCCCCCCC(=O)*

What was measured:
[1] = tested on: POPG liposomes; test: CD, α-helix content in POPG liposomes; format: physicochemical; details: 25 °C, peptide 0.15 mg/mL, 1.3 mM POPG, from ellipticity at 222 nm
Experimental: (§1) Large unilamellar vesicles (LUV) were obtained by extrusion of MLV liposomes through polycarbonate membrane filters with a pore diameter of 100 nm (Whatman International Ltd., Kent, UK) using a mini-extruder (Avanti Polar Lipids, Inc., Alabaster, AL, USA).
(§2) CD experiments were carried out at 25 °C using a Jasco J-815 spectropolarimeter in the wavelength range 185–260 nm. The concentration of the lipopeptides was 0.15 mg/mL. The CD spectra were recorded in water, PBS (pH 7.4), 1.3 mM POPC and 1.3 mM POPG. The results are plotted as the mean molar ellipticity per one amino acid residue (MRME, deg cm^2 dmol^−1) as a function of the wavelength (nm). Additionally, we performed a conformational analysis of the selected compounds in the presence of S. aureus cells. […] The mixtures were then incubated for 2 h before recording the CD spectra.
(§3) The percentage of the α-helical structure was calculated based on the mean molar ellipticity at 222 nm using the formula: fH=θ222−3000/−36000−3000·100% where θ222 corresponds to the value of the mean molar ellipticity at a wavelength of 222 nm.

[2] = tested on: S. epidermidis PCM521; format: cell-based, Staphylococcus epidermidis; details: PCM521, 24 h
In short: (§4)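 MICs came from CLSI broth microdilution, using Mueller–Hinton broth for bacteria and MOPS-buffered RPMI-1640 with 2% glucose for yeasts. Plates were incubated 24 h at 37 °C (bacteria) or 35 °C (fungi) and read at 600 nm. Growth inhibition (%) was set against peptide-free inoculated wells (100%) and medium-only wells (0%), in triplicate.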

[3] = tested on: S. epidermidis PCM2118; format: cell-based, Staphylococcus epidermidis; details: PCM2118, 24 h
In short: as §4

[4] = tested on: C. krusei CCM8271; format: cell-based, Candida krusei; details: CCM8271, 24 h
In short: as §4

[5] = tested on: C. albicans PCM2566; format: cell-based, Candida albicans; details: PCM2566, 24 h
In short: as §4

[6] = tested on: S. aureus PCM2054; format: cell-based, Staphylococcus aureus; details: PCM2054, 24 h
In short: as §4

[7] = tested on: S. aureus PCM1650; format: cell-based, Staphylococcus aureus; details: PCM1650, 24 h
In short: as §4

[8] = tested on: C. glabrata CCM8270; format: cell-based, Candida glabrata; details: CCM8270, 24 h
In short: as §4

[9] = tested on: C. parapsilosis CCM 8260; format: cell-based, Candida parapsilosis; details: CCM 8260, 24 h
In short: as §4

[10] = tested on: human prostate cancer cells (PC3 line, ATCC); test: MTT cytotoxicity assay; format: cell-based; details: IC50 against HaCaT divided by IC50 for PC3
Experimental: (§5) The prepared plates were further incubated for 48 h. […] The control cell viability was assumed to be 100%. Three independent experiments were carried out in three repetitions.

[11] = tested on: human breast cancer cells (MCF-7 line, ATCC); test: MTT cytotoxicity assay; format: cell-based; details: IC50 against HaCaT divided by IC50 for MCF-7
Experimental: as §5

[12] = tested on: POPC liposomes; test: CD, α-helix content in POPC liposomes; format: physicochemical; details: 25 °C, peptide 0.15 mg/mL, 1.3 mM POPC
Experimental: as §1, §2, §3

[13] = target: POPG LUVs; test: Isothermal titration calorimetry, binding to POPG LUVs; details: ITC, 25 °C, 0.05 or 0.07 mM peptide titrated with 1.3 or 1.8 mM POPG LUVs; one set of sites model (C10-LL-I: two sets of sites, first line)
Experimental: as §1
The thermodynamic parameters of the interactions of the lipopeptides with POPG and POPC liposomes were determined by isothermal titration calorimetry (ITC). Measurements were performed at 25 °C using an AutoITC microcalorimeter (MicroCal Inc., Northampton, MA, USA) with a 1.4491 mL sample and reference cells. The experiment consisted in the titration of a buffered peptide solution with a concentration of 0.05 and/or 0.07 mM with a buffered solution containing POPG or POPC LUVs with a lipid concentration of 1.3 and 1.8 mM (10.02 µL; 29 injections, 2 µL for the first injection only), as it was described previously. The result of the titration was a thermogram showing a series of peaks corresponding to the titration steps. A titration curve was obtained after integration of the peak areas. The obtained isotherms were fitted to the “one set of sites” or “two sets of sites” models available in the ORIGIN 7.0 (MicroCal Inc., Northampton, MA, USA), which made it possible to determine the enthalpy (ΔH), the binding constant (KITC) and the stoichiometry (N) of the interactions between the lipopeptide and the lipids. The following formula was used to calculate the entropy change (ΔS) and the Gibbs free energy (ΔG): ΔG=−RTln(55.5KITC)=ΔH−TΔS where: factor 55.5 is the molar concentration of water, R is the gas constant (1.986 cal·mol^−1·K^−1), and T is the absolute temperature.

## CCCCCCCC(=O)N[C@H](C(=O)N[C@@H](CCCCN)C(=O)N[C@@H](CCCCN)C(=O)N[C@H](C(=O)N[C@@H](CC(C)C)C(=O)N[C@@H](CO)C(=O)N[C@@H](CCCCN)C(=O)N[C@H](C(=O)N[C@@H](CCCCN)C(=O)N[C@@H](CCCCN)C(=O)N[C@@H](CC(C)C)C(=O)N[C@@H](CC(C)C)C(=O)N[C@@H](CCCCN)C(N)=O)[C@@H](C)CC)[C@@H](C)CC)[C@@H](C)CC [C8-LK6] (Octanoyl-IKKILSKIKKLLK-NH2)
[1]
  α-Helix percentage, POPG: 24%
[2]
  MIC, S. epidermidis PCM521: 6.25 µg/mL (≈ 3.72 µM)
[3]
  MIC, S. epidermidis PCM2118: 6.25 µg/mL (≈ 3.72 µM)
[4]
  MIC, C. krusei CCM8271: 6.25 µg/mL (≈ 3.72 µM)
[5]
  MIC, C. albicans PCM2566: 12.5 µg/mL (≈ 7.45 µM)
[6]
  MIC, S. aureus PCM2054: 12.5 µg/mL (≈ 7.45 µM)
[7]
  MIC, S. aureus PCM1650: 12.5 µg/mL (≈ 7.45 µM)
[8]
  MIC, C. glabrata CCM8270: 25 µg/mL (≈ 14.9 µM)
[9]
  MIC, C. parapsilosis CCM 8260: 6.25 µg/mL (≈ 3.72 µM)
[10]
  SI PC3: 1.50
[11]
  SI MCF-7: 3.44
[12]
  θ222/θ208, POPC: 0.82
[12]; from ellipticity at 222 nm
  α-Helix percentage, POPC: 46%
[13]
  pKITC, POPG: 6.31 ± 0.34
